Activity calls are given as the source filed them. The rule behind the calls is not given here.
How the values were obtained:
MCF7 [1] = assay: Cytotoxicity against human MCF7 cells assessed as reduction in cell viability at 5 to 80 uM after 48 hrs by MTT assay; format: functional, cell-based; details: dose 5-80 µM
4T1 = assay: Antitumour activity against mouse 4T1 cells implanted in BALB/c mouse assessed as inhibition in tumor growth at 10 umol/kg administered peri-tumor injection for 21 days relative to control; format: functional; details: 4T1, 504 h, time 21 day, read-out: TGI
[2] = biological target: T1, von Hippel-Lindau disease tumor suppressor/Estrogen receptor (Homo sapiens) (UniProt P03372+P40337); assay: Protac activity at VHL/ERalpha in human MCF7 cells assessed as degradation of ERalpha protein level at 10 uM after 12 hrs by Western blot analysis; format: cell-based
[3] = Drug uptake in human MCF7 cells at 10 uM FITC labelled form of compound after 12 hrs by flow cytometric analysis; format: ADME, cell-based; details: mcf7, 12 h
MCF7 [4] = assay: Induction of apoptosis in human MCF7 cells assessed as viable cells at 10 uM after 12 hrs by annexinV-FITC/PI staining based flow cytometric analysis (reference value: 95.4 to 97.6%); format: functional; details: read-out: Activity
MCF7 [5] = assay: Induction of apoptosis in human MCF7 cells assessed as early apoptotic cells at 10 uM after 12 hrs by annexinV-FITC/PI staining based flow cytometric analysis (reference value: 0.8 to 1.6%); format: functional
MCF7 [6] = assay: Induction of apoptosis in human MCF7 cells assessed as late apoptotic cells at 10 uM after 12 hrs by annexinV-FITC/PI staining based flow cytometric analysis (reference value: 0.9 to 1.9%); format: functional
MCF7 [7] = assay: Induction of apoptosis in human MCF7 cells assessed as necrotic cells at 10 uM after 12 hrs by annexinV-FITC/PI staining based flow cytometric analysis (reference value: 0.7 to 1.1%); format: functional
MCF7 [8] = assay: Cytotoxicity against human MCF7 cells assessed as reduction in cell viability after 48 hrs by MTT assay; format: functional, cell-based
A2780 = assay: Cytotoxicity against human A2780 cells assessed as reduction in cell viability at 5 to 80 uM after 48 hrs by MTT assay; format: functional, cell-based; details: dose 5-80 µM
MDA-MB-231 = assay: Cytotoxicity against human MDA-MB-231 cells assessed as reduction in cell viability at 5 to 80 uM after 48 hrs by MTT assay; format: functional, cell-based; details: dose 5-80 µM
HUVEC = assay: Cytotoxicity against human HUVEC cells assessed as reduction in cell viability at 5 to 80 uM after 48 hrs by MTT assay; format: cell-based; details: dose 5-80 µM
[9] = biological target: T1, von Hippel-Lindau disease tumor suppressor/Estrogen receptor (Homo sapiens); assay: Protac activity at VHL/ERalpha in human A2780 cells assessed as degradation of ERalpha protein level at 10 uM after 12 hrs by Western blot analysis; format: cell-based
[10] = Drug uptake in human MCF7 cells FITC labelled form of compound by flow cytometric analysis; format: ADME, cell-based; details: dose lower 2 µM, time lower 2 hrs, dose upper 16 µM, time upper 24 hrs
[11] = Drug uptake in human MCF7 cells at 10 uM FITC labelled form of compound after 3 hrs by Hoechst 33258 staining based fluorescence microscopic analysis; format: ADME, cell-based; details: mcf7, 3 h
MCF7 [12] = assay: Induction of apoptosis in human MCF7 cells assessed as increase in late apoptotic cells after 12 hrs by annexinV-FITC/PI staining based flow cytometric analysis; format: functional, cell-based; details: dose 5-20 µM
MCF7 [13] = assay: Induction of apoptosis in human MCF7 cells assessed as increase in necrotic cells after 12 hrs by annexinV-FITC/PI staining based flow cytometric analysis; format: functional, cell-based; details: dose 5-20 µM
MCF7 [14] = assay: Induction of apoptosis in human MCF7 cells assessed as viable cells at 5 uM after 12 hrs by annexinV-FITC/PI staining based flow cytometric analysis (reference value: 95.4 to 97.6%); format: functional; details: read-out: Activity
MCF7 [15] = assay: Induction of apoptosis in human MCF7 cells assessed as early apoptotic cells at 5 uM after 12 hrs by annexinV-FITC/PI staining based flow cytometric analysis (reference value: 0.8 to 1.6%); format: functional
MCF7 [16] = assay: Induction of apoptosis in human MCF7 cells assessed as late apoptotic cells at 5 uM after 12 hrs by annexinV-FITC/PI staining based flow cytometric analysis (reference value: 0.9 to 1.9%); format: functional
MCF7 [17] = assay: Induction of apoptosis in human MCF7 cells assessed as necrotic cells at 5 uM after 12 hrs by annexinV-FITC/PI staining based flow cytometric analysis (reference value: 0.7 to 1.1%); format: functional
MCF7 [18] = assay: Induction of apoptosis in human MCF7 cells assessed as viable cells at 20 uM after 12 hrs by annexinV-FITC/PI staining based flow cytometric analysis (reference value: 95.4 to 97.6%); format: functional; details: read-out: Activity
MCF7 [19] = assay: Induction of apoptosis in human MCF7 cells assessed as early apoptotic cells at 20 uM after 12 hrs by annexinV-FITC/PI staining based flow cytometric analysis (reference value: 0.8 to 1.6%); format: functional
MCF7 [20] = assay: Induction of apoptosis in human MCF7 cells assessed as late apoptotic cells at 20 uM after 12 hrs by annexinV-FITC/PI staining based flow cytometric analysis (reference value: 0.9 to 1.9%); format: functional
MCF7 [21] = assay: Induction of apoptosis in human MCF7 cells assessed as necrotic cells at 20 uM after 12 hrs by annexinV-FITC/PI staining based flow cytometric analysis (reference value: 0.7 to 1.1%); format: functional
[22] = biological target: T1, von Hippel-Lindau disease tumor suppressor/Estrogen receptor (Homo sapiens); assay: Protac activity at VHL/ERalpha in human MCF7 cells assessed as increase in ubiquitinated-ERalpha at 10 uM after 6 hrs in presence of MG-132 by Western blot analysis; format: cell-based
[23] = biological target: von Hippel-Lindau disease tumor suppressor/Progesterone receptor (Homo sapiens) (UniProt P06401+P40337); assay: Protac activity at VHL/PR in human MCF7 cells assessed as degradation of PR protein level at 10 uM after 12 hrs by Western blot analysis; format: cell-based
[24] = biological target: von Hippel-Lindau disease tumor suppressor/Vitamin D3 receptor (Homo sapiens) (UniProt P11473+P40337); assay: Protac activity at VHL/VDR in human MCF7 cells assessed as degradation of VDR protein level at 10 uM after 12 hrs by Western blot analysis; format: cell-based
[25] = Toxicity in BALB/c mouse implanted with mouse 4T1 cells assessed as change in body weight at 10 umol/kg administered peri-tumor injection for 21 days; details: in vivo, other, 504 h, dose 10 µmol/kg, time 21 day

T1 sequence (P03372 whole entry, looked up): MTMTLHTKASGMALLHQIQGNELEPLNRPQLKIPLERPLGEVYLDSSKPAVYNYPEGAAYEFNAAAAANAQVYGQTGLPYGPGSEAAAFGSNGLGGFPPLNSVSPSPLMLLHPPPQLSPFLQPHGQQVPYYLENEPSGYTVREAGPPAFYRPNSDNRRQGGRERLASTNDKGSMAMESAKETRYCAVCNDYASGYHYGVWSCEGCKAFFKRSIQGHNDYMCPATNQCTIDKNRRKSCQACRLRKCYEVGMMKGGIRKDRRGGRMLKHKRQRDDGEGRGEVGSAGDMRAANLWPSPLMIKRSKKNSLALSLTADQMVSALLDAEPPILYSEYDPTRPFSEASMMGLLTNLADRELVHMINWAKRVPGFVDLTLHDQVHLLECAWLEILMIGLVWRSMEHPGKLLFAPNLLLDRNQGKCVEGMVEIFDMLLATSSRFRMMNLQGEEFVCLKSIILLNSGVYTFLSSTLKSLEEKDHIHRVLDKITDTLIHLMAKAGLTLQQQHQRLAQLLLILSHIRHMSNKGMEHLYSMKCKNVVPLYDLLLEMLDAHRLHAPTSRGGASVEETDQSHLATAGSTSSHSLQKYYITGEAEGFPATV
T1 sequence (P40337 whole entry, looked up): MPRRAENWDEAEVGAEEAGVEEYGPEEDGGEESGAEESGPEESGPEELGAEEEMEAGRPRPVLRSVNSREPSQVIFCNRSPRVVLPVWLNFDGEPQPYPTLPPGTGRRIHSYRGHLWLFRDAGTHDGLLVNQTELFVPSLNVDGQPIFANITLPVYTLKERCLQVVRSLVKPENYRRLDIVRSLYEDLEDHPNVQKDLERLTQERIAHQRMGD
Chain of von Hippel-Lindau disease tumor suppressor/Vitamin D3 receptor (Homo sapiens) (P11473 whole entry, looked up): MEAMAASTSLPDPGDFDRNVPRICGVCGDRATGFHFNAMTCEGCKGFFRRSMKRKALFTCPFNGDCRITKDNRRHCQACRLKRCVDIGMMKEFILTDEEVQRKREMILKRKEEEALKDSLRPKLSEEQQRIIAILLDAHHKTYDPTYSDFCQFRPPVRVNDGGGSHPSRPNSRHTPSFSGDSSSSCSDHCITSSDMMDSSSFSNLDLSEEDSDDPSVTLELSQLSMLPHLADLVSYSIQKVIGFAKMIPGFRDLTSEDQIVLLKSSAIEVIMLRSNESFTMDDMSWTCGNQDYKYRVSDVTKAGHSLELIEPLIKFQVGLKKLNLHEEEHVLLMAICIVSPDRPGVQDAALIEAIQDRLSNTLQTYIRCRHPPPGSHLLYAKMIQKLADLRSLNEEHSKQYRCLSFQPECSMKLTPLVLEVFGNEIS
Chain of von Hippel-Lindau disease tumor suppressor/Vitamin D3 receptor (Homo sapiens) (P40337 whole entry, looked up): as the sequence (P40337 whole entry, looked up) above
Chain of von Hippel-Lindau disease tumor suppressor/Progesterone receptor (Homo sapiens) (P06401 whole entry, looked up): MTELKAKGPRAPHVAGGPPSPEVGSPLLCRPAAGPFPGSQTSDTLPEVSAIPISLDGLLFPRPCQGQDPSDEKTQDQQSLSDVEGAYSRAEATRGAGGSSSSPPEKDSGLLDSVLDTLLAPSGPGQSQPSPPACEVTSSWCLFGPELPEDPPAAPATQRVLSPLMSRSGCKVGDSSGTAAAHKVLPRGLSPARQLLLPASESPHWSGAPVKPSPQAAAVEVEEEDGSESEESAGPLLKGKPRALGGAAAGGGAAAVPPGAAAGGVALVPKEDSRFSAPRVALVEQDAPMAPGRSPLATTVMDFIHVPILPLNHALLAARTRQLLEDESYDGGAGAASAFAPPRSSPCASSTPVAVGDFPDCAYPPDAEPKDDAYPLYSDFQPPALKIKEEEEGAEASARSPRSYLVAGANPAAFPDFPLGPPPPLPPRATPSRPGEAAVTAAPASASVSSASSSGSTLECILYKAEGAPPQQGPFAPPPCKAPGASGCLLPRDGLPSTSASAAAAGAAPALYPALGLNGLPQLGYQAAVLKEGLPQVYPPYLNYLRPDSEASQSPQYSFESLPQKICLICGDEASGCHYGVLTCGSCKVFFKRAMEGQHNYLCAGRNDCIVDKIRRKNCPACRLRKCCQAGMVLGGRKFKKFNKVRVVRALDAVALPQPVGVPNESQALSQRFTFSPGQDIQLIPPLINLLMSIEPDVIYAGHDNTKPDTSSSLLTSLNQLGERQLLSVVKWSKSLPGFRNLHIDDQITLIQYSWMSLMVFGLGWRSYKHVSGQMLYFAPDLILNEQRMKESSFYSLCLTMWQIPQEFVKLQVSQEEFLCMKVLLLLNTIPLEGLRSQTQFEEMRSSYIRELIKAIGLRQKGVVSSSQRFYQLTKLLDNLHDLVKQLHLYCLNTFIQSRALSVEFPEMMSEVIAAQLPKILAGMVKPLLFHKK
Chain of von Hippel-Lindau disease tumor suppressor/Progesterone receptor (Homo sapiens) (P40337 whole entry, looked up): as the sequence (P40337 whole entry, looked up) above

With `CC/C(=C(\c1ccccc1)c1ccc(OCCN(C)C)cc1)c1ccccc1` [TAMOXIFEN] the Activity (MCF7 [1]) was “Active” and the inhibition in vivo at 10 µmol/kg (4T1) was 36%.
For `CC[C@H](C)[C@H](NC(=O)[C@H](Cc1ccc(O)cc1)NC(=O)[C@@H]1C[C@@H](O)CN1C(=O)[C@H](C)NC(=O)[C@H](CC(C)C)NC(=O)CCCCCNC(=O)[C@H](CCC(N)=O)NC(=O)[C@H](CC(C)C)NC(=O)C(CC(C)(C)C)NC(=O)[C@H](CCCNC(=N)N)NC(=O)[C@@H]1CNC(=O)C(N[C@@H](CCCNC(=N)N)C(N)=O)CC(=O)N[C@@H]([C@@H](C)CC)C(=O)N[C@@H](CC(C)C)C(=O)N1)C(N)=O` (some centres undefined), the Activity (MCF7 [1]) was “Active”, the Activity [2] was “Active” and the Drug uptake [3] was “Active”. It also gave a viability at 10 µM (MCF7 [4]) of 78.5%, an Activity (MCF7 [5]) of 0.9% and an Activity (MCF7 [6]) of 7.9%. For the same molecule, the Activity (MCF7 [7]) was 12.7%.
With `CC[C@H](C)[C@H](NC(=O)[C@H](Cc1ccc(O)cc1)NC(=O)[C@@H]1C[C@@H](O)CN1C(=O)[C@H](C)NC(=O)[C@H](CC(C)C)NC(=O)CCCCCNC(=O)[C@H](CCC(N)=O)NC(=O)C(CC(C)(C)C)NC(=O)C(CC(C)(C)C)NC(=O)[C@H](CCCNC(=N)N)NC(=O)[C@@H]1CNC(=O)C(N[C@@H](CCCNC(=N)N)C(N)=O)CC(=O)N[C@@H]([C@@H](C)CC)C(=O)NC(CC(C)(C)C)C(=O)N1)C(N)=O` (some centres undefined) the Activity (MCF7 [1]) was “Active”, the Activity (MCF7 [8]) was “Dose-dependent effect” and the IC50 (MCF7 [8]; MCF7, 48 h) was 9.7 µM. For the same molecule, the Activity (A2780) was “Active”, the Activity (MDA-MB-231) was “Active” and the Activity (HUVEC) was “Non-Toxic”. For the same molecule, the Activity [2] was “Active”, the Activity [9] was “Active” and the Drug uptake [3] was “Active”. For the same molecule, the Drug uptake [10] was “Dose-dependent effect and Tde”, the Drug uptake [11] was “Active” and the Activity (MCF7 [12]) was “Dose-dependent effect”. For the same molecule, the Activity (MCF7 [13]) was “Dose-dependent effect”, the viability at 10 µM (MCF7 [4]) was 59.5% and the Activity (MCF7 [5]) was 0.7%. For the same molecule, the Activity (MCF7 [6]) was 13.6%, the Activity (MCF7 [7]) was 26.2% and the viability at 5 µM (MCF7 [14]) was 87.2%. For the same molecule, the Activity (MCF7 [15]) was 1.3%, the Activity (MCF7 [16]) was 6% and the Activity (MCF7 [17]) was 5.5%. For the same molecule, the viability at 20 µM (MCF7 [18]) was 28.8%, the Activity (MCF7 [19]) was 0.4% and the Activity (MCF7 [20]) was 26.2%. The Activity (MCF7 [21]) was 44.6%, the Activity [22] was “Active” and the Activity [23] was “inactive”. The Activity [24] was “inactive”, the inhibition in vivo at 10 µmol/kg (4T1) was 67% and the Activity [25] was “Non-Toxic”.
